Some test systems named below: HCT-116 colon; MDA-MB-231 breast; UO-31 renal; RPMI-8226 leukemia; ACHN renal; M14 melanoma; HCC-2998 colon; A498 renal; K-562 leukemia; SK-MEL-2 melanoma.
Assay in all cases: growth of human tumour cells (NCI), 48 h

The structures appear in SMILES notation. Where “and” joins values, the source holds several entries; their conditions need not be identical. Equal values may be shown once.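 Interpolation was linear, between the two tested concentrations surrounding the appropriate level; five concentrations were tested over 48 hours in 96-well plates. GI50 marks 50% less growth. At the TGI there is no net growth.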

As to `CC(=O)O[C@H]1C(=O)[C@@]2(C)C(C(OC(=O)c3ccccc3)[C@]3(O)CC(OC(=O)[C@H](OC(=O)CCC(=O)O)C(NC(=O)c4ccccc4)c4ccccc4)C(C)=C1C3(C)C)C1(OC(C)=O)COC1C[C@@H]2O` (stereo not given in full), the TGI in the assay on HCT-116 colon was over 100 µM; with UO-31 renal, over 100 µM; in the assay on RPMI-8226 leukemia, under 0.01 µM; in the assay with ACHN renal, over 100 µM; in the assay with M14 melanoma, 41.2 µM and > 100 µM; with HCC-2998 colon it was > 100 µM and 20.3 µM. Further, the GI50 was < 0.0171 µM and 0.0486 µM in the assay with MDA-MB-231 breast; 14 µM and 61.4 µM with UO-31 renal; 0.19 µM and 0.821 µM in the assay on ACHN renal; < 0.0111 µM and 0.0224 µM in the assay with M14 melanoma.
For the compound `CC(C)(CO)N1CCN(C(=S)Nc2ccccc2)CC1`, the TGI is over 100 µM in the assay on A498 renal; over 100 µM with HCT-116 colon; over 100 µM with MDA-MB-231 breast; 99.5 µM with K-562 leukemia; over 100 µM with SK-MEL-2 melanoma; over 100 µM in the assay with UO-31 renal. The TGI in the assay on RPMI-8226 leukemia, in the assay with ACHN renal and in the assay on M14 melanoma was over 100 µM throughout.
`O=c1cc(-c2ccccc2)oc2cc(OC/C(=N/O)c3ccccc3)ccc12`: the GI50 with MDA-MB-231 breast was 6.98 µM; in the assay on K-562 leukemia, 36.5 µM; in the assay on SK-MEL-2 melanoma, 20.2 µM; with UO-31 renal, 18.4 µM; in the assay on RPMI-8226 leukemia it was 6.69 µM; in the assay with ACHN renal, 9.41 µM. The GI50 with M14 melanoma is over 50 µM; with HCC-2998 colon, 30.7 µM. Besides, the TGI is 23.9 µM in the assay on MDA-MB-231 breast; over 50 µM in the assay with K-562 leukemia; over 50 µM with SK-MEL-2 melanoma; over 50 µM in the assay on UO-31 renal; over 50 µM in the assay on RPMI-8226 leukemia; 20.2 µM in the assay with ACHN renal. The TGI in the assay on M14 melanoma and in the assay with HCC-2998 colon was over 50 µM throughout.
`N#CSC1CCCCNC1=O` (stereo not given): the TGI with HCT-116 colon is over 100 µM; in the assay on MDA-MB-231 breast, 33 µM; in the assay on K-562 leukemia it was 62.3 µM; in the assay with SK-MEL-2 melanoma, 27 µM; with UO-31 renal it was 31.1 µM; in the assay on RPMI-8226 leukemia, 29.3 µM. The TGI in the assay with ACHN renal stood at 29.9 µM; with M14 melanoma it was 39.3 µM; in the assay with HCC-2998 colon it was 32.4 µM.
`Cn1c2ccccc2c2ccc3c(c21)C(=O)c1ccccc1C3=O`: the TGI in the assay on HCT-116 colon is 40.6 µM; in the assay on MDA-MB-231 breast it was 64.2 µM; in the assay with K-562 leukemia, 32.2 µM; in the assay with UO-31 renal, over 100 µM; in the assay with RPMI-8226 leukemia, 36.1 µM; in the assay on ACHN renal, 69.2 µM. The TGI with M14 melanoma was 83 µM; in the assay with HCC-2998 colon, over 100 µM.
For the compound `CCOC1Oc2ccc(C)cc2C(=O)/C1=C\Nc1ccc(C(N)=O)cc1` (stereo not given), the GI50 in the assay on HCT-116 colon was 13.4 µM; with MDA-MB-231 breast, 16.7 µM; in the assay on K-562 leukemia, 22.6 µM; with SK-MEL-2 melanoma, 34.4 µM; in the assay on UO-31 renal it was 21.2 µM; in the assay on RPMI-8226 leukemia it was 18.6 µM. The values for the GI50 in the assay with ACHN renal, in the assay with M14 melanoma and with HCC-2998 colon were 14.9 µM, 17.2 µM and 20.3 µM, respectively. Moreover, the TGI was 26.2 µM with HCT-116 colon; 36 µM in the assay on MDA-MB-231 breast; 66.6 µM in the assay with K-562 leukemia; over 100 µM in the assay on SK-MEL-2 melanoma; 59.7 µM in the assay on UO-31 renal; 90.5 µM in the assay on RPMI-8226 leukemia. The figures for the TGI in the assay with ACHN renal, with M14 melanoma and in the assay on HCC-2998 colon were 40.6 µM, 33.4 µM and 39 µM, respectively.
Take `O=C(CC1C(=O)NN(c2ccc(Br)cc2)C1=O)c1cc(O)ccc1O` (stereo not given): the GI50 in the assay with A498 renal is over 50 µM; in the assay on HCT-116 colon, 26.2 µM; with MDA-MB-231 breast it was 8.44 µM; with K-562 leukemia, 14.8 µM; in the assay with SK-MEL-2 melanoma it was 36.5 µM; with UO-31 renal, 41.2 µM. The figures for the GI50 in the assay on RPMI-8226 leukemia, in the assay with ACHN renal and with M14 melanoma were 16.5 µM, 14.8 µM and 31.2 µM, respectively. The TGI was over 50 µM with A498 renal; over 50 µM in the assay on HCT-116 colon; 22.4 µM with MDA-MB-231 breast; over 50 µM with K-562 leukemia; over 50 µM with SK-MEL-2 melanoma; over 50 µM with UO-31 renal. For the same compound, the TGI is over 50 µM in the assay on RPMI-8226 leukemia, 49.4 µM in the assay on ACHN renal and over 50 µM with M14 melanoma.
Consider `O=C1CCC(N2C(=O)c3ccccc3C2=O)C(=O)N1CO` (stereo not given), for which the GI50 with A498 renal was over 100 µM; with HCT-116 colon, 21.2 µM; in the assay with MDA-MB-231 breast, over 100 µM; in the assay with K-562 leukemia, over 100 µM; with SK-MEL-2 melanoma, over 100 µM; with UO-31 renal, over 100 µM. Moreover, the GI50 in the assay on RPMI-8226 leukemia is 25.1 µM; in the assay with ACHN renal, 95.2 µM; with M14 melanoma it was 54.7 µM. The TGI with A498 renal was over 100 µM; with HCT-116 colon, 45.4 µM; in the assay on MDA-MB-231 breast it was over 100 µM; in the assay on K-562 leukemia, over 100 µM; with SK-MEL-2 melanoma it was over 100 µM; with UO-31 renal it was over 100 µM. Further, the results for the TGI with RPMI-8226 leukemia, in the assay on ACHN renal and in the assay on M14 melanoma were 78.7 µM, over 100 µM and over 100 µM, respectively.
For the compound `O=C(CCN(C(=O)O)S(=O)(=O)c1ccc(NC(=O)c2ccccc2)cc1)NC1CCCCC1`, the TGI with A498 renal is over 100 µM; with HCT-116 colon it was over 100 µM; in the assay on K-562 leukemia, over 100 µM; in the assay on SK-MEL-2 melanoma, over 100 µM; in the assay on UO-31 renal, over 100 µM; in the assay with RPMI-8226 leukemia it was 41.8 µM. The TGI with ACHN renal, with M14 melanoma and with HCC-2998 colon was over 100 µM in each case.
On to `CCOC(=O)/C(=C\c1ccccc1)C(=O)O`, for which the TGI in the assay on A498 renal, with HCT-116 colon, in the assay with K-562 leukemia, in the assay on SK-MEL-2 melanoma, in the assay with UO-31 renal and with RPMI-8226 leukemia was over 100 µM each time. Also, the TGI with ACHN renal, in the assay with M14 melanoma and in the assay with HCC-2998 colon was over 100 µM throughout.
Turning to `CCCCCCCC(=O)OCC/C=C/C1OC1C1OC(=O)/C=C\C=C\c2nc(oc2C)/C=C(/C)CCC2OC2C1OC(=O)NC(C)=O` (stereo not given), the GI50 in the assay on A498 renal is 0.00368 µM; in the assay on HCT-116 colon, 0.00922 µM; with MDA-MB-231 breast, 0.0625 µM; in the assay on K-562 leukemia it was 0.0304 µM; in the assay with SK-MEL-2 melanoma, 0.0222 µM; with RPMI-8226 leukemia, 0.0241 µM. The GI50 in the assay with ACHN renal was 0.0103 µM; in the assay with HCC-2998 colon, 0.0208 µM. In addition, the TGI with A498 renal stood at 0.00927 µM; in the assay with HCT-116 colon it was 0.368 µM; in the assay on MDA-MB-231 breast it was 6.38 µM; in the assay with K-562 leukemia it was 1.51 µM; with SK-MEL-2 melanoma it was 0.0647 µM; in the assay on RPMI-8226 leukemia, 1.04 µM. The TGI came out at 0.933 µM with ACHN renal and 0.0739 µM in the assay with HCC-2998 colon.

The values above are taken from PubChem BioAssay (NCI).
